The target of this test is D(1A) dopamine receptor (Homo sapiens) (UniProt P21728). Description: D1 receptor modulation with EC30 dopamine, dose response, D1 allosteric modulator project, cell-based, CRE-luciferase, HEK293 (AID 858).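 Note: HEK 293 cells bearing human D1 receptor stimulated by dopamine at its EC30; luciferase light from a cAMP response element reporter gene.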

Drawing on PubChem BioAssay AID858 (Vanderbilt High Throughput Screening Facility, 2007), this text covers outcome and EC50 for twelve molecules.

Calls of active or inactive are those of the source.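 Rule for the calls: active = at least two of three replicate dose series yielding a converging curve fit, whether well or thinly supported; inactive = the rest.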

Sequence of D(1A) dopamine receptor (Homo sapiens) (P21728 whole entry, looked up): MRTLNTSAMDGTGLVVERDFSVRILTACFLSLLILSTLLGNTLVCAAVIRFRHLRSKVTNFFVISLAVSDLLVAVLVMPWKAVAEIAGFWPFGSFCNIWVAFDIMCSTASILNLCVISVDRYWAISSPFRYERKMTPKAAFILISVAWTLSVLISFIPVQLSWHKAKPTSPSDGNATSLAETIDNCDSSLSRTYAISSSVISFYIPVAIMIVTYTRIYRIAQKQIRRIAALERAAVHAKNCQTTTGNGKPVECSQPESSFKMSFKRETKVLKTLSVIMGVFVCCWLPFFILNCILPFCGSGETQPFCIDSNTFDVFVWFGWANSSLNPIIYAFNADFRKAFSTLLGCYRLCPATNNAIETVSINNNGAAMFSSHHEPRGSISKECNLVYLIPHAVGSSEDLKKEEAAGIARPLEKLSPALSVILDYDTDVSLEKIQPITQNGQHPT

`CCSC(C)CC1C/C(=N/O)c2c(CC)noc2C1` (configuration not stated): the outcome was inactive. Turning to `CCn1c(SCc2cccnc2)nc2c1c(=O)n(C)c(=O)n2C`, the outcome was inactive. Same read-out and setting: the result for `COC(=O)/C(=C1/Oc2cc3c(cc2S1)OCO3)C(F)(F)F` reads “inactive”. By EC50 is commonly meant the concentration giving half of the maximal effect. `COc1ccc(-c2noc(CCN3C(=O)c4ccccc4C3=O)n2)cc1OC`: the EC50 is 309 nM. Regarding `CCOC(=O)C(C)Oc1cccc2c(=O)n(CC(=O)NCc3ccco3)ccc12` (configuration not stated), the outcome was inactive. Still for that read-out and setting: the result for `COc1c(S(=O)(=O)n2nc(C)cc2C)ccc(Cl)c1Cl` reads “inactive”; that for `CC(C)C1C2=C(CC(C)(C)CC2=O)ON1c1ccccc1` (configuration not stated), “inactive”. `Cc1cc(Br)c2c(c1)=C(c1sc(N3CCCCCC3)nc1O)C(=O)N=2`: the half-maximal effective concentration (EC50) was 1350 nM. For `C=CCNC(=O)C1CC(c2cccc(OC)c2)=NO1` (configuration not stated), the result was inactive. The same measure, in the same setting: in the case of `CCC(=O)n1nc(-c2ccco2)nc1N` it was “inactive”; in that of `N#Cc1cnn(Cc2ccccc2)c1/N=C/N1CCOCC1`, “inactive”. `COCCCNc1c2c3c(cccc3[nH]c1=O)C(=O)c1ccccc1-2`: the result was inactive.
